The values below are quoted from earlier work in patent publication US10052295B2, “Method, composition and package for bowel cleansing” (priority 2011, dated 2018).

Each structure is given as a SMILES string.

Consider `OC[C@@H](O)[C@@H](O)CO` [erythritol], for which the GI symptoms entry (doses as high as 50 mg (Storey 2006)) was “not reported to produce any significant GI symptoms”.
For `OC[C@@H](O)[C@H](O)[C@@H](O)CO` [xylitol], the “toxic effects in humans” value (doses as high as 50 grams per day for over two years (Makinen 1976)) is reported as “no toxic effects”. Also, the watery feces entry (doses over 35 grams, compared with erythritol (Storey 2006)) is given as “significantly more watery feces”.
